Assay results reported in patent US8609836B2, “4-aryl-2-anilino-pyrimidines” (Janssen Pharmaceutica NV, priority 2008, dated 2013).

Assays:
CDK1/CyclinB (h) = CDK1/CyclinB (h) (Homo sapiens, UniProt P06493); experiment: CDK1/CyclinB human kinase inhibition, Invitrogen's FRET assay (Z'lyte); type: biochemical; settings: read-out: CDK1 pIC50 (converted)
How it was run: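 Read-out is the 460 nm/538 nm emission ratio (390 nm excitation) after a 60 min protease development step. Before that, 10 μM ATP and 2 μM Z'lyte Ser/Thr peptide 12 react 60 min at room temperature with 0.2 μg/ml human CDK1/CyclinB in Hepes pH 7.5 containing MgCl2, EGTA and Brij-35.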

PLK4 (h) = PLK4 (h) (Homo sapiens, UniProt O00444); experiment: PLK-4 human kinase inhibition, scintillation proximity assay (SPA); type: biochemical; settings: read-out: PLK4 pIC50 (converted)
PLK4 (h), sequence (O00444 whole entry): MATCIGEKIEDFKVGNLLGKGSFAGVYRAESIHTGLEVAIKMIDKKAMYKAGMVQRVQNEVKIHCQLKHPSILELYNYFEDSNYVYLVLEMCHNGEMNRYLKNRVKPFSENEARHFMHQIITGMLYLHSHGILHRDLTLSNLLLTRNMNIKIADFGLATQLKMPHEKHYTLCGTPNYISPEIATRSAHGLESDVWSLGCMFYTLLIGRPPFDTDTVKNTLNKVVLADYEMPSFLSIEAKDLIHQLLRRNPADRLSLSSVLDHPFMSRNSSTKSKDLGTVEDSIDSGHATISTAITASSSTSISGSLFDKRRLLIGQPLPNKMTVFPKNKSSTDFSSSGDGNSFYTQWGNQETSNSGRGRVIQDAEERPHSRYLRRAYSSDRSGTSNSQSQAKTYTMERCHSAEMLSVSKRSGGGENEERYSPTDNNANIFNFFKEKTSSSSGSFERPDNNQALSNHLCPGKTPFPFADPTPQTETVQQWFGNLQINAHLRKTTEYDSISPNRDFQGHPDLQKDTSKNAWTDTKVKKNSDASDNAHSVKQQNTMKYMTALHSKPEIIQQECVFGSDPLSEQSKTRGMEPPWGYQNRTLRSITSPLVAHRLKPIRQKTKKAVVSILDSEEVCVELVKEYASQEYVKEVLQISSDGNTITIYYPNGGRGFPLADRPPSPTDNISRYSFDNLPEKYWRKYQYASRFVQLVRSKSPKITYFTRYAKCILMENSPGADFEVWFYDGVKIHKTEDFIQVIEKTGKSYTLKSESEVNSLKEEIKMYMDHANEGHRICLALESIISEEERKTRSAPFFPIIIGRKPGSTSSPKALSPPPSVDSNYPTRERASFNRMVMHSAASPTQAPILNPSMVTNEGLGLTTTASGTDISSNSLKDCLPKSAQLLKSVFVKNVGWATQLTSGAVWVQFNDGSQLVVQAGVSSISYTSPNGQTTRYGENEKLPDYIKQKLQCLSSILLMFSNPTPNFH

PLK3 (h) = PLK3 (h) (Homo sapiens, UniProt Q9H4B4); experiment: PLK3 human kinase inhibition, SPA; type: biochemical; settings: read-out: PLK3 pIC50 (converted)
PLK3 (h), sequence (Q9H4B4 whole entry): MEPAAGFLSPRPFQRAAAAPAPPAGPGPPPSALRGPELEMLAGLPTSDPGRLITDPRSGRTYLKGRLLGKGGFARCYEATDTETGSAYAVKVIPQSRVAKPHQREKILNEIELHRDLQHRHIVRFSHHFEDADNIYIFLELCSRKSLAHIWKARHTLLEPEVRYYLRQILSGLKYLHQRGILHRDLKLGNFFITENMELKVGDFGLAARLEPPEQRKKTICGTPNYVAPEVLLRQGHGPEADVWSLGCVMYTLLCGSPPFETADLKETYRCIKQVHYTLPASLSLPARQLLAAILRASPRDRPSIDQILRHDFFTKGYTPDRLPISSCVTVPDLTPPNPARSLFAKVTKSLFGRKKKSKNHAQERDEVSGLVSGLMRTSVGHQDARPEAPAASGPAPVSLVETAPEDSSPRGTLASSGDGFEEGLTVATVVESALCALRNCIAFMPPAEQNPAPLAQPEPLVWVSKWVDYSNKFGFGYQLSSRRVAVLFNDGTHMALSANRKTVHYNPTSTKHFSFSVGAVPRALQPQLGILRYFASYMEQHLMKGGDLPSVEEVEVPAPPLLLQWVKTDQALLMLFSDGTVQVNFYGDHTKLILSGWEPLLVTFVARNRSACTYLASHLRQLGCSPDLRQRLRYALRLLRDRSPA
How it was run: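 Radiometric scintillation proximity format at pH 8.0 (Hepes, MnCl2, DTT). The 2 μM biotin-peptide substrate is phosphorylated by PLK3 (h) (30 μg/ml) using 0.1 μM ATP traced with 33P, for 20 min at room temperature. EDTA stop; phosphopeptide captured on streptavidin beads and imaged.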

GSK3β (h) = GSK3β (h) (Homo sapiens, UniProt P49841); experiment: GSK-3β human kinase inhibition, SPA; type: biochemical; settings: read-out: GSK3b pIC50 (converted)
GSK3β (h), sequence (P49841 whole entry): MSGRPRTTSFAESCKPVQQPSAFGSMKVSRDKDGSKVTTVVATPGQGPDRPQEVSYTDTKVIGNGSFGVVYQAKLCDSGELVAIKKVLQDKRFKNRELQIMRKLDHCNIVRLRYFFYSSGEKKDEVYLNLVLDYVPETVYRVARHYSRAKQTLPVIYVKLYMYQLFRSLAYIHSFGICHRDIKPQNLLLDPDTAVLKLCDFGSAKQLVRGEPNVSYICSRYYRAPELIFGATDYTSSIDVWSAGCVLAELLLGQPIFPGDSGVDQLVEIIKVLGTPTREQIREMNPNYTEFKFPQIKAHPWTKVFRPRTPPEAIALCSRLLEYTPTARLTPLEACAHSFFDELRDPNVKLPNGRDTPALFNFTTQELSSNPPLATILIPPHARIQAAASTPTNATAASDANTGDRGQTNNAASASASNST
How it was run: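 Radiometric: 33P-labelled peptide captured on streptavidin SPA beads after EDTA stop and imaged on Leadseeker. Reaction ran 1 h at RT, 1 μM cold ATP with 2 nM [γ-33P]ATP, 1 μM biotin-peptide substrate, human GSK3β 1 μg/ml, pH 7.4 Tris buffer.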

PLK2 (h) = PLK2 (h) (Homo sapiens, UniProt Q9NYY3); experiment: PLK2 human kinase inhibition, SPA; type: biochemical; settings: read-out: PLK2 pIC50 (converted)
PLK2 (h), sequence (Q9NYY3 whole entry): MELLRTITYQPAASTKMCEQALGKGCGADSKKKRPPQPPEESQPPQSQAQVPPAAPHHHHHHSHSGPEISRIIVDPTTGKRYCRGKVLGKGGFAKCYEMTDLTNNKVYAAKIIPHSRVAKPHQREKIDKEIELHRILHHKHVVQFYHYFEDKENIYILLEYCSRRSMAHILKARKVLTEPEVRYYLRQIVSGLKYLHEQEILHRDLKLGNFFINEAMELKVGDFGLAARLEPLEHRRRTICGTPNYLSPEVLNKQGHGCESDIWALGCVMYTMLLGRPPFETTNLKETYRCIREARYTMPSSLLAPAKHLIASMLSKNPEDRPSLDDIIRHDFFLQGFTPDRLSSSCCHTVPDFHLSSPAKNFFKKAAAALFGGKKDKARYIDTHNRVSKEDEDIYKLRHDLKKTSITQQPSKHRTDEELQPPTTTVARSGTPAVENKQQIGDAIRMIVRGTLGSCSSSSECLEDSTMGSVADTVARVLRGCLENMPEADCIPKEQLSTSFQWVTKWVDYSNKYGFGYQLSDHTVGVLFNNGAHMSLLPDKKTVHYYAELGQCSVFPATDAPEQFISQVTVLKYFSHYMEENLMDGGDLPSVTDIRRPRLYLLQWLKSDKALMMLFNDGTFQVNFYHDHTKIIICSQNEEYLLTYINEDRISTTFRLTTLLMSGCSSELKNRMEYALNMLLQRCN
How it was run: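 33P incorporation into a biotinylated peptide (2 μM) was captured on streptavidin PVT beads and imaged on Leadseeker. Enzyme at 30 μg/ml, ATP 0.1 μM with 2 nM [γ-33P]ATP, Hepes pH 8.0 with MnCl2 and DTT. Incubation was 20 min at room temperature.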

HCT-116 = experiment: Cellular proliferation assay (Alamar blue), HCT-116; type: cell-based; settings: Homo sapiens, 10% FCS, 72 hours with compound, Alamar blue 4 h
How it was run: (§1)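 Alamar blue conversion, quantified fluorimetrically (544 nm/590 nm), gave viable cell number relative to untreated controls; dye time 4 h for HCT-116, 6 h for U87-MG, 24 h for A2780 and MDA-MB-231. Compound exposure lasted 72 h, after 24 h pre-seeding, with 10% FCS, 37 °C, 5% CO2.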

MDA-MB-231 = experiment: Cellular proliferation assay (Alamar blue), MDA-MB-231; type: cell-based; settings: Homo sapiens, 10% FCS, 72 hours with compound, Alamar blue 24 h, read-out: MDA/MB231 (cellular proliferation assay, Table 4) (converted)
Description: (§2) […] functional properties of these compounds were tested in cellular proliferation assays on a panel of different cell lines in the presence of 10% FCS serum (37° C. and 5% (v/v) CO2). In a first step these cells were seeded and incubated for 24 hours in the absence of compound. In the second step the cells were incubated for 72 hours with the compounds to be tested for 72 hours. The viable cell number was finally assessed in a standard Alamar blue cell viability assay.
(§3) The viable cell number was assessed by incubation for either 4 h (HCT-116, H1299) 6 h (U87-MG) or 24 h (A2780, MDA-MB-231) with Alamar blue (Resazurin 9 μg/ml, K-Ferrocyanide 90 μM, K-Ferricyanide 90 μM) and the converted fluorescent product was quantified on a fluorescent plate reader (544 nm/590 nm). Effect of the compounds is calculated as of on control cells.

PLK1 T210D (h) = PLK1 T210D (h) (Homo sapiens, UniProt P53350, T210D); experiment: PLK1 human kinase inhibition, SPA; type: biochemical; settings: read-out: PLK1 pIC50 (converted)
PLK1 T210D (h), sequence (P53350 whole entry T210D): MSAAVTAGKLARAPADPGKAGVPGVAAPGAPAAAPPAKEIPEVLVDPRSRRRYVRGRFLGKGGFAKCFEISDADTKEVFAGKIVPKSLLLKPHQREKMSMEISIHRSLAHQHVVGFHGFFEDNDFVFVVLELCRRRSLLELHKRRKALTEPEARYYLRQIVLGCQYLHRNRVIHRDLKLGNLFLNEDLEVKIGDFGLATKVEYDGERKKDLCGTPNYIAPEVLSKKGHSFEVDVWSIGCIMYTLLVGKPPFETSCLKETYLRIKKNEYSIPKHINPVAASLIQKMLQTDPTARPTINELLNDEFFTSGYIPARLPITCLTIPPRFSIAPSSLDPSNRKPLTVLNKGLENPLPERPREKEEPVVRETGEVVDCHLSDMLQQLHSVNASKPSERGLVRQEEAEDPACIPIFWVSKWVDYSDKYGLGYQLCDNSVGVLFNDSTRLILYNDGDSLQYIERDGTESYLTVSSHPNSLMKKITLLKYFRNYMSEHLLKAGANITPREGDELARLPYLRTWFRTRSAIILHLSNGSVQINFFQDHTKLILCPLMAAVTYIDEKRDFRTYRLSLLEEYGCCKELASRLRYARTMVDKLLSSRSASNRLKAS
How it was run: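 Kinase incubated 40 min at room temperature with 0.1 μM ATP (2 nM [γ-33P]ATP tracer), 2 μM biotinylated peptide, pH 8.0 Hepes buffer with 2 mM MnCl2 and 1 mM DTT; enzyme at 0.125 ng/ml. Stopped with EDTA; 33P-peptide bound to streptavidin scintillant beads and imaged.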

CDK4/CyclinD1 (h) = CDK4/CyclinD1 (h) (Homo sapiens, UniProt P11802); experiment: CDK4/CyclinD1 human kinase inhibition, SPA with GST-pRb substrate; type: biochemical; settings: read-out: CDK4 pIC50 (converted)
CDK4/CyclinD1 (h), sequence (P11802 whole entry): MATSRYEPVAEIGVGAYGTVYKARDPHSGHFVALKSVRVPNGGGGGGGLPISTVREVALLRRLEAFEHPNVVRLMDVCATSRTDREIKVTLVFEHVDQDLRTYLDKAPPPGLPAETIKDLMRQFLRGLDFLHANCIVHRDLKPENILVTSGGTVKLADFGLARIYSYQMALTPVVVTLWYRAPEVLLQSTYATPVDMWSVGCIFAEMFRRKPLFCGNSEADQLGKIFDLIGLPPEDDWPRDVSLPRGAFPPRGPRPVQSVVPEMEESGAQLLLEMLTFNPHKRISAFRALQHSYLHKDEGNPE
CDK4/CyclinD1 (h), sequence (P24385 whole entry partner): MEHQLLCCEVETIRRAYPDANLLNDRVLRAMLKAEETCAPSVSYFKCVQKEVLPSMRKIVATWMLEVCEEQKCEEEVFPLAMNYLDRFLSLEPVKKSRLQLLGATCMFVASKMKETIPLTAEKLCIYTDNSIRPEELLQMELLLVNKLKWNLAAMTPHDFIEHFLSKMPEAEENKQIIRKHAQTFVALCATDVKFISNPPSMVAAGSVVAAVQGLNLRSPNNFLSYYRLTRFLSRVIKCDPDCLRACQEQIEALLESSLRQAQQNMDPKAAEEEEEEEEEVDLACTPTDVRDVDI
Description: The in vitro inhibition of a panel of kinases was assessed using either the scintillation proximity assay (SPA) as described by Cook, N. D. et al., Advances in Experimental Medicine and Biology (1991), 36; p. 525-528.
In the SPA technology the activity of the kinase of interest is measured using an appropriate biotinylated substrate that is incubated with the aforementioned kinase protein in the presence of (^33P) radiolabeled ATP. (^33P) Phosphorylation of the substrate is subsequently measured through binding of the phosphorylated substrate to streptavidine coated beads that are based on the scintillant poly(vinyl toluene) (PVT-Beads). The scintillation intensity is detected by imaging on Leadseeker.
All kinases are pre-diluted to a 10× working concentration prior to addition into the assay. The composition of the dilution buffer for each kinase is detailed below.
In a final reaction volume of 30 μl, CDK4/CyclinD1 (h) (2.5 μg/ml) is incubated with 50 mM Hepes pH 7.5, 8 mM NaF, 20 mM MgCl2, 1 mM DTT, 40 μg/ml of substrate GST-pRb, 2 nM [γ-^33P-ATP] (6.0 μCi/ml). After incubation of 60 minutes at room temperature, the reaction is stopped by addition of 40 μL of stop solution containing 8.7 mM EDTA, 0.17% Triton X-100, 25 mg/ml Glutathion SPA Beads (GE-healthcare). The plate is centrifuged and read for Scintillation topcount analyzer.

AuroraB (h) = AuroraB (h) (Homo sapiens, UniProt Q96GD4); experiment: Aurora-B human kinase inhibition, SPA; type: biochemical; settings: read-out: AuroraB pIC50 (converted)
AuroraB (h), sequence (Q96GD4 whole entry): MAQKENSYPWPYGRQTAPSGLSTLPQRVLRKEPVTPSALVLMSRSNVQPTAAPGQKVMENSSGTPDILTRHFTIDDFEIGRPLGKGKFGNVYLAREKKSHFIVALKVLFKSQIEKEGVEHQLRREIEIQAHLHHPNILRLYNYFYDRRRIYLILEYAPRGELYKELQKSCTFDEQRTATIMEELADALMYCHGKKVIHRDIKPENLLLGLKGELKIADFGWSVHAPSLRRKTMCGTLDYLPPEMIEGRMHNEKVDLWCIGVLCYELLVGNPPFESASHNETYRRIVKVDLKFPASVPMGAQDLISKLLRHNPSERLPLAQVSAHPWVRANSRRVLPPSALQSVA
How it was run: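 AuroraB (0.5 μg/ml) phosphorylates 3 μM biotin-peptide using 0.5 μM ATP spiked with 33P-ATP in Hepes pH 7.5 with 3 mM MgCl2 and MnCl2, for 60 min at room temperature. EDTA stop solution carries streptavidin scintillant beads, and the captured radiolabel is imaged.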

H1299 = experiment: Cellular proliferation assay (Alamar blue), H1299; type: cell-based; settings: Homo sapiens, NCI-H1299; 10% FCS; 72 hours with compound; Alamar blue 4 h
Description: as §2, §3

U87-MG = experiment: Cellular proliferation assay (Alamar blue), U87-MG; type: cell-based; settings: Homo sapiens, U-87 MG; 10% FCS; 72 hours with compound; Alamar blue 6 h; read-out: U87-MG (cellular proliferation assay, Table 4) (converted)
How it was run: as §1

A2780 = experiment: Cellular proliferation assay (Alamar blue), A2780; type: cell-based; settings: Homo sapiens, 10% FCS, 72 hours with compound, Alamar blue 24 h, read-out: A2780 (cellular proliferation assay, Table 4) (converted)
How it was run: as §1

CDK1/CyclinB (h), sequence (P06493 whole entry): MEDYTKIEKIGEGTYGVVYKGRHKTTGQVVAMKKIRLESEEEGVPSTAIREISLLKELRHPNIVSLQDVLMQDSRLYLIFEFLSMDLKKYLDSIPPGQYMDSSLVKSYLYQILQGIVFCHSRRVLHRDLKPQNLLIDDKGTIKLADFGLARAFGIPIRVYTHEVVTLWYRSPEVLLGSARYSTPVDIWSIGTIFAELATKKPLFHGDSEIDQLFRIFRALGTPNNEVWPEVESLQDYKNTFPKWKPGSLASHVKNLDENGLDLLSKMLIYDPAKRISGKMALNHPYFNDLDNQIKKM
CDK1/CyclinB (h), sequence (P14635 whole entry partner): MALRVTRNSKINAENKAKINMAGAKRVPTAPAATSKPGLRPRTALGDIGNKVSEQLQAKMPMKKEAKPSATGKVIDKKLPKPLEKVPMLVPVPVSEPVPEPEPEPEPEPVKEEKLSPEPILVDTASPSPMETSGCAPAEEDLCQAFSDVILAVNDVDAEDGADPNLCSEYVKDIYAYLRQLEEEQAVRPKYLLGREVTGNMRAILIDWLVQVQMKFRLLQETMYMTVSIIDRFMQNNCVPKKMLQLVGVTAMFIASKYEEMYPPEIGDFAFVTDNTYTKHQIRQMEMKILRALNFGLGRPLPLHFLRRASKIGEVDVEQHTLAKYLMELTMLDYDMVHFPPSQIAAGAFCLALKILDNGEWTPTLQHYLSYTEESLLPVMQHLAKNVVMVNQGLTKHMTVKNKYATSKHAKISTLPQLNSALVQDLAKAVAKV

`COc1ccc2cc1CNCCCNC(=O)C1CCN(CC1)Cc1cc(ccc1N1CCOCC1)Nc1nccc-2n1` [Compound 3] gave an IC50 (CDK1/CyclinB (h)) greater than 10 µM, an IC50 (PLK4 (h)) of 0.0871 µM and an IC50 (PLK3 (h)) greater than 10 µM. The IC50 (GSK3β (h)) was greater than 10 µM, the IC50 (PLK2 (h)) was greater than 10 µM and the IC50 (HCT-116) was greater than 10 µM. The IC50 (MDA-MB-231) was greater than 10 µM, the IC50 (PLK1 T210D (h)) was greater than 10 µM and the IC50 (CDK4/CyclinD1 (h)) was greater than 10 µM. The IC50 (AuroraB (h)) was 1.55 µM and the IC50 (H1299) was greater than 10 µM.
`COc1ccc2cc1CNCCCNC(=O)CN1CCN(CC1)Cc1cc(ccc1N1CCOCC1)Nc1nccc-2n1` [Compound 13] was tested, and the IC50 (CDK1/CyclinB (h)) was greater than 10 µM, the IC50 (PLK4 (h)) was 0.49 µM and the IC50 (PLK3 (h)) was greater than 10 µM. It also gave an IC50 (GSK3β (h)) greater than 10 µM, an IC50 (PLK2 (h)) greater than 10 µM and an IC50 (HCT-116) greater than 10 µM. For the same molecule, the IC50 (MDA-MB-231) was greater than 10 µM, the IC50 (PLK1 T210D (h)) was greater than 10 µM and the IC50 (CDK4/CyclinD1 (h)) was greater than 10 µM. It also gave an IC50 (AuroraB (h)) of 4.17 µM and an IC50 (H1299) greater than 10 µM.
With `CN1CCN(Cc2cc3cc(c2)Nc2nccc(n2)-c2cccc(c2)CNC(=O)[C@@H]2CCCN2C3)CC1` [Compound 28] the IC50 (CDK1/CyclinB (h)) was 0.603 µM, the IC50 (U87-MG) was 0.158 µM and the IC50 (PLK3 (h)) was greater than 10 µM. The IC50 (GSK3β (h)) was 0.112 µM, the IC50 (PLK2 (h)) was greater than 10 µM and the IC50 (HCT-116) was 0.363 µM. The IC50 (A2780) was 0.55 µM, the IC50 (MDA-MB-231) was 1.62 µM and the IC50 (PLK1 T210D (h)) was greater than 10 µM. For the same molecule, the IC50 (CDK4/CyclinD1 (h)) was 1.66 µM, the IC50 (AuroraB (h)) was greater than 10 µM and the IC50 (H1299) was 2.24 µM.
`O=C1NCc2cccc(c2)-c2ccnc(n2)Nc2cccc(c2)CN2CCC[C@@H]12` [Compound 53] gave an IC50 (PLK4 (h)) greater than 10 µM, an IC50 (U87-MG) of 6.61 µM and an IC50 (PLK3 (h)) greater than 10 µM. It also gave an IC50 (GSK3β (h)) of 0.126 µM, an IC50 (PLK2 (h)) greater than 10 µM and an IC50 (HCT-116) of 8.71 µM. The IC50 (A2780) was greater than 10 µM, the IC50 (MDA-MB-231) was greater than 10 µM and the IC50 (PLK1 T210D (h)) was greater than 10 µM. It also gave an IC50 (CDK4/CyclinD1 (h)) greater than 10 µM, an IC50 (AuroraB (h)) greater than 10 µM and an IC50 (H1299) greater than 10 µM.
With `O=C1NCCNCc2ccc(cc2)-c2ccnc(n2)Nc2ccc(N3CCOCC3)c(c2)CN2CCC1CC2` [Compound 71] the IC50 (CDK1/CyclinB (h)) was 9.77 µM, the IC50 (PLK4 (h)) was 1.7 µM and the IC50 (PLK3 (h)) was greater than 10 µM. It also gave an IC50 (GSK3β (h)) greater than 10 µM, an IC50 (PLK2 (h)) greater than 10 µM and an IC50 (HCT-116) of 5.13 µM. The IC50 (MDA-MB-231) was 6.76 µM, the IC50 (PLK1 T210D (h)) was greater than 10 µM and the IC50 (CDK4/CyclinD1 (h)) was greater than 10 µM. It also gave an IC50 (AuroraB (h)) greater than 10 µM and an IC50 (H1299) greater than 10 µM.
`O=C1CN2CCN(CC2)Cc2cc(ccc2N2CCOCC2)Nc2nccc(n2)-c2ccc(cc2)CNCCN1` [Compound 125] was tested, and the IC50 (CDK1/CyclinB (h)) was greater than 10 µM, the IC50 (PLK4 (h)) was 0.692 µM and the IC50 (PLK3 (h)) was greater than 10 µM. It also gave an IC50 (GSK3β (h)) greater than 10 µM, an IC50 (PLK2 (h)) greater than 10 µM and an IC50 (HCT-116) greater than 10 µM. The IC50 (MDA-MB-231) was greater than 10 µM, the IC50 (PLK1 T210D (h)) was greater than 10 µM and the IC50 (CDK4/CyclinD1 (h)) was greater than 10 µM. For the same molecule, the IC50 (AuroraB (h)) was greater than 10 µM and the IC50 (H1299) was greater than 10 µM.
With `COc1cc2cc(c1)Nc1nccc(n1)-c1ccc(cc1)CN(C)CCCNC(=O)CN1CCN(CC1)C2` [Compound 133] the IC50 (CDK1/CyclinB (h)) was greater than 10 µM, the IC50 (PLK4 (h)) was 1.51 µM and the IC50 (U87-MG) was 8.91 µM. For the same molecule, the IC50 (PLK3 (h)) was greater than 10 µM, the IC50 (PLK2 (h)) was greater than 3.02 µM and the IC50 (HCT-116) was 1.95 µM. It also gave an IC50 (A2780) greater than 10 µM, an IC50 (MDA-MB-231) greater than 10 µM and an IC50 (PLK1 T210D (h)) greater than 10 µM. For the same molecule, the IC50 (CDK4/CyclinD1 (h)) was greater than 10 µM, the IC50 (AuroraB (h)) was greater than 10 µM and the IC50 (H1299) was greater than 10 µM.
